Test results as given in article PMC8911944, “Screening of Natural Products Inhibitors of SARS-CoV-2 Entry” (Molecules, 2022).
Converted amounts (≈) assume the structure as drawn.

Tested on: not listed separately
Assay: Cytotoxicity assay, resazurin method
Type: cell-based
Conditions: human, HEK293T-ACE2 cells, HEK-293T ACE2 cells, unit inferred
Experimental: (§1) The maximum non-toxic concentration was assessed using the resazurin method. Briefly, HEK293T-ACE2 cells were cultured at 1 × 10^4 cells/well in a 96-well plate in the presence of different concentrations of the natural products. Vehicle (DMSO)-treated cells were used as a control and normalizer. Resazurin was added 48 h later, and after 3 h, cell viability was determined. Absorbance was measured on the MultiskanTM GO (ThermoScientific, Waltham, MA, USA) at 570 and 630 nm. The MNTC is the maximum concentration with a cytotoxicity lower than 10%.
In the case of `C=C1CC/C=C(\C)CC[C@@H]2[C@@H]1CC2(C)C` [β-Caryophyllene], the CC50 at 48 h is reported as 183 µg/mL (≈ 896 µM).

Tested on: HEK293T-ACE2 cells
Assay: Cytotoxicity assay, resazurin method
Type: cell-based
Conditions: maximum concentration with cytotoxicity lower than 10%
Experimental: as §1
For `C=C1CC/C=C(\C)CC[C@@H]2[C@@H]1CC2(C)C` [β-Caryophyllene], the “MNTC (maximum non-toxic concentration)” value was 125 µg/mL.
For `CC1=C[C@H](O)[C@H]2C[C@@H]1C2(C)C` (relative stereo) [cis-Verbenol], the “MNTC (maximum non-toxic concentration)” value was 250 µg/mL.
In the case of `CC(O)[C@@H]1NC(=O)c2cccn2C1=O` (some centres unmarked) [Macrophominol], the “MNTC (maximum non-toxic concentration)” value is reported as 36 µg/mL.
With `CC(=O)OC1C=CC(=O)OC1C1OC1C` (centres unmarked) [Asperline] the “MNTC (maximum non-toxic concentration)” value was 7.81 µg/mL.
For `CC(=O)C1COC(O)C1C` (centres unmarked) [Botryodiplodin], the “MNTC (maximum non-toxic concentration)” value was 3 µg/mL.
With `C=C1CC[C@H]2O[C@]2(C)CC[C@@H]2[C@@H]1CC2(C)C` [Caryophyllene Oxide] the “MNTC (maximum non-toxic concentration)” value was 31.25 µg/mL.
For `C=CC(C)(O)CCC=C(C)C` (centres unmarked) [Linalool], the “MNTC (maximum non-toxic concentration)” value was 125 µg/mL.
In the case of `C/C=C/[C@H]1OC(=O)C=C[C@H]1OC(C)=O` [Acetylphomolactone], the “MNTC (maximum non-toxic concentration)” value is reported as 4.5 µg/mL.
In the case of S-Limonene, the “MNTC (maximum non-toxic concentration)” value is reported as 31.25 µg/mL.
For `C=C(C)[C@H]1CC=C(C)CC1` [R-Limonene], the “MNTC (maximum non-toxic concentration)” value was 31.25 µg/mL.
In the case of `C[C@H]1CC[C@@H](C(C)(C)O)CC2=C1CC[C@@H]2C` [Guaiol], the “MNTC (maximum non-toxic concentration)” value is reported as 33.3 µg/mL.
With Isoasperline the “MNTC (maximum non-toxic concentration)” value was 7.19 µg/mL.

Tested on: pseudotyped virus carrying the vesicular stomatitis virus glycoprotein G (VSV-G)
Assay: not given
Type: cell-based
Conditions: not given
In the case of `C=C1CC/C=C(\C)CC[C@@H]2[C@@H]1CC2(C)C` [β-Caryophyllene], the “inhibitory activity against the entry of the VSV-G-pseudotyped virus” value is reported as “low inhibitory activity”.
